Test results: patent US5744452A, “γ-L-glutamyl containing immunomodulator compounds and methods therewith” (Wei; Edward T., priority 1995, dated 1998)

What was measured:
[1] = tested on: mice; experiment: Pharmacological activity after oral administration to mice; format: in vivo; conditions: for .THETA.-antigen expression % of cells: bone marrow after 30 days; for IL-2 production: splenocytes after 30 days
Method: Bestim dissolved in saline was given orally, for 5 days, to groups of 5 mice per dose. After 30 days, the quantity of .THETA.-antigen positive cells in bone marrow and IL-2 production by splenocytes were measured (as described in later in methods).

[2] = tested on: rats; experiment: Acute toxicity, single intramuscular dose, rats; format: in vivo; conditions: single 500.0 mg/kg intramuscular, 14 days
Method: (§1) To illustrate this point and in preparation for clinical studies, acute and sub-acute toxicity studies were conducted in animals with Bestim according to conditions of good-laboratory practices. Bestim, prepared as a sterile lyophitized powder in ampoules, was dissolved in sterile 0.9% NaCl solution and injected intramuscularly in all experiments.
(§2) Acute toxicity: Rodents (mice and rats) and dogs were randomized into groups of equal numbers of males and females. Animals were inspected daily for 14 days after a single dose of Bestim (intramuscular):
(§3) Body weight, overall appearance and behavior were evaluated each day and, at the end of two weeks, macroscopic and histopathological examinations of the internal organs (heart, lungs, pleural and peritoneal cavities, muscles, stomach, small and large intestine, liver, spleen, pancreas, kidneys, bladder, thyroid, brain, skin and testes/ovaries) of all animals were conducted.

[3] = tested on: dogs; experiment: Acute toxicity, single intramuscular dose, dogs; format: in vivo; conditions: single 500.0 mg/kg intramuscular, 14 days
Method: as §1, §2, §3

[4] = tested on: rats; experiment: Subacute toxicity, repeated intramuscular injection, rats; format: in vivo
Method: as §1
(§4) Subacute Toxicity Studies: In a second set of experiments, Bestim was administered for longer durations, accordingly:
rats: 1 mg/kg and 100 mg/kg, administered intramuscularly daily for 3 months and for 6 months

[5] = tested on: dogs; experiment: Subacute toxicity, repeated intramuscular injection, dogs; format: in vivo
Method: as §1, §4
dogs: 1 mg/kg, 10 mg/kg and 100 mg/kg, administered intramuscularly daily for 1 month and for 3 months.

[6] = tested on: patients with generalized surgical infection; experiment: Study in patients with generalized surgical infection; format: in vivo, human
Method: Preliminary studies were conducted to characterize the immunomodulatory properties of Bestim in human subjects. The protocol for the human subjects studies were reviewed and approved by a Hospital Committee (Moscow Hospital N-24) and informed consent was obtained from all subjects. All 62 patients received by intramuscular injection 0.1 mg of Bestim dissolved in 1.5 to 2.0 ml of sterile saline, one injection per day for 5 days. Patients participating in the clinical trials were from 2 groups:
The second group consisted of 28 patients with generalized surgical infection. Bestim was given together with standard antibiotic therapy.
Laboratory measurements (data in Table 8 to 10) were performed one day before and compared to values obtained three days after injection of Bestim.

[7] = Bestim combined with conventional methods
[8] = surgical infection, Bestim After
[9] = surgical infection, Bestim Before

Compound: N[C@@H](CCC(=O)N[C@@H](Cc1c[nH]c2ccccc12)C(=O)O)C(=O)O [Bestim, γ-L-glutamyl-L-tryptophan]
- activity after oral administration ([1]; animal studies, summary): active after oral administration
- .THETA.-antigen expression % of cells ([1]; oral 0.1 μg/kg/day for 5 days): 48 ± 1.9 % of cells
- IL-2 production ([1]; oral 0.1 μg/kg/day for 5 days): 43 ± 11.5 Units/ml
- .THETA.-antigen expression % of cells ([1]; oral 1 μg/kg/day for 5 days): 48 ± 3.0 % of cells
- IL-2 production ([1]; oral 1 μg/kg/day for 5 days): 73 ± 16.3 Units/ml
- .THETA.-antigen expression % of cells ([1]; oral 10 μg/kg/day for 5 days): 36 ± 2.3 % of cells
- IL-2 production ([1]; oral 10 μg/kg/day for 5 days): 130 ± 11.8 Units/ml
- deaths [2]: No deaths were observed
- general appearance, behavior, body weight, hematological, biochemical and physiological indices, macroscopic and histopathological examination of internal organs [2]: all within normal limits
- deaths [3]: No deaths were observed
- general appearance, behavior, body weight, hematological, biochemical and physiological indices, macroscopic and histopathological examination of internal organs [3]: all within normal limits
- morphological appearance of all organs, macroscopic and histological ([4]; rats, 1 and 100 mg/kg i.m. daily for 3 and 6 months): normal
- body weight ([4]; rats, both doses (1 and 100 mg/kg i.m. daily)): slight increase in body weight
- tested dose relative to expected doses for therapeutic trials ([4]; repeated administration): ~100 fold
- macroscopic and histological examination of organs ([5]; dogs, 1, 10 and 100 mg/kg i.m. daily for 1 and 3 months): no significant changes
- local inflammatory reactions at the site of injection ([5]; dogs, repeated i.m. injection): no local inflammatory reactions at the site of injection
- clinical improvement [6, 7]: more rapid clinical improvement
- duration of the patient's stay in the clinic [6, 7]: decreased the duration of the patient's stay in the clinic
- Adhesion (%) [6, 8]: 41 ± 3%
- Blast transformation PHA [6, 8]: 8935 ± 780
- Blast transformation spont [6, 8]: 541 ± 48
- CD3 (%) [6, 8]: 65 ± 5%
- CD4 (%) [6, 8]: 40 ± 3%
- CD4/CD8 [6, 8]: 1.92 ± 0.17
- CD8 (%) [6, 8]: 22 ± 2%
- CD16 (%) [6, 8]: 10.7 ± 2.1%
- CD72 (%) [6, 8]: 4.0 ± 0.5%
- Chemilumin luminol (induced) [6, 8]: 5063 ± 431
- Chemilumin luminol (spontaneous) [6, 8]: 1427 ± 252
- IL-1 production LPS induced [6, 8]: 1601 ± 284
- IL-1 production spontaneous [6, 8]: 588 ± 201
- IgA [6, 8]: 2.2 ± 0.1 g/L
- IgG [6, 8]: 9.7 ± 0.9 g/L
- IgM [6, 8]: 1.2 ± 0.1 g/L
- NBT test induced [6, 8]: 144 ± 17
- NBT test spontaneous [6, 8]: 77 ± 11
- TNF production spontaneous [6, 8]: 286 ± 27
- TNF prpoduction LPS induced [6, 8]: 338 ± 81
- Adhesion (%) [6, 9]: 32 ± 3%
- Blast transformation PHA [6, 9]: 4563 ± 524
- Blast transformation spont [6, 9]: 435 ± 53
- CD3 (%) [6, 9]: 35 ± 5%
- CD4 (%) [6, 9]: 25 ± 4%
- CD4/CD8 [6, 9]: 2.09 ± 0.30
- CD8 (%) [6, 9]: 15 ± 2%
- CD16 (%) [6, 9]: 6.2 ± 1.1%
- CD72 (%) [6, 9]: 4.1 ± 0.6%
- Chemilumin luminol (induced) [6, 9]: 2943 ± 307
- Chemilumin luminol (spontaneous) [6, 9]: 1008 ± 90
- IL-1 production LPS induced [6, 9]: 1014 ± 157
